# From ChEMBL document CHEMBL3885881, “DrugMatrix”
# Species on record: Rattus norvegicus
# Experiment: DrugMatrix - Regimen: Daily Repeat
# Assay type: toxicity, organism-based, Sprague-Dawley
# Parameters: regimen Daily Repeat, gender Male, age 6-8 weeks
# Conditions: in vivo, po, 0 mg/kg, route oral GAVAGE, dose level Control, vehicle .5 % CMC; for ABSOLUTE BASOPHIL / ABSOLUTE EOSINOPHIL / ABSOLUTE LYMPHOCYTE / ABSOLUTE MONOCYTE / ABSOLUTE SEGMENTED NEUTROPHIL / BASOPHIL / EOSINOPHIL / ERYTHROCYTE COUNT / HEMATOCRIT / HEMOGLOBIN / LEUKOCYTE COUNT / LYMPHOCYTE / MEAN CORPUSCULAR HEMOGLOBIN / MEAN CORPUSCULAR HEMOGLOBIN CONCENTRATION / MEAN CORPUSCULAR VOLUME / MONOCYTE / NEUTROPHIL / NUCLEATED RED BLOOD CELLS / PLATELET COUNT: tissue Blood; for ALANINE AMINOTRANSFERASE / ALBUMIN / ALKALINE PHOSPHATASE / ASPARTATE AMINOTRANSFERASE / BLOOD UREA NITROGEN / CARBON DIOXIDE / CHLORIDE / CHOLESTEROL / CREATINE PHOSPHOKINASE / CREATININE / GLUCOSE / LACTATE DEHYDROGENASE / LIPASE / PHOSPHORUS / POTASSIUM / SODIUM / TOTAL BILIRUBIN / TOTAL PROTEIN / URIC ACID: tissue Plasma
structure (smiles),measurement,setting,value
C[C@H]1O[C@@H](n2cc(F)c(=O)[nH]c2=O)[C@H](O)[C@@H]1O [DOXIFLURIDINE],ABSOLUTE BASOPHIL,"72 h, time 3 day",0 CELLS/uL
same,ABSOLUTE EOSINOPHIL,"72 h, time 3 day",0 CELLS/uL
same,ABSOLUTE LYMPHOCYTE,"72 h, time 3 day",12191.17 CELLS/uL
same,ABSOLUTE MONOCYTE,"72 h, time 3 day",183.17 CELLS/uL
same,ABSOLUTE SEGMENTED NEUTROPHIL,"72 h, time 3 day",1192.33 CELLS/uL
same,BASOPHIL,"72 h, time 3 day",0%
same,EOSINOPHIL,"72 h, time 3 day",0%
same,ERYTHROCYTE COUNT,"72 h, time 3 day",5.51 x10E6/uL
same,HEMATOCRIT,"72 h, time 3 day",35.45%
same,HEMOGLOBIN,"72 h, time 3 day",13.82 G/DL
same,LEUKOCYTE COUNT,"72 h, time 3 day",13.57 x10E3/uL
same,LYMPHOCYTE,"72 h, time 3 day",89.83%
same,MEAN CORPUSCULAR HEMOGLOBIN,"72 h, time 3 day",25.1 pg
same,MEAN CORPUSCULAR HEMOGLOBIN CONCENTRATION,"72 h, time 3 day",38.98 G/DL
same,MEAN CORPUSCULAR VOLUME,"72 h, time 3 day",64.42 fL
same,MONOCYTE,"72 h, time 3 day",1.33%
same,NEUTROPHIL,"72 h, time 3 day",8.83%
same,NUCLEATED RED BLOOD CELLS,"72 h, time 3 day",0 /100WBC
same,PLATELET COUNT,"72 h, time 3 day",1118.17 x10E3/uL
same,ALANINE AMINOTRANSFERASE,"72 h, time 3 day",55 u/L
same,ALBUMIN,"72 h, time 3 day",4.15 G/DL
same,ALKALINE PHOSPHATASE,"72 h, time 3 day",449.5 u/L
same,ASPARTATE AMINOTRANSFERASE,"72 h, time 3 day",112.83 u/L
same,BLOOD UREA NITROGEN,"72 h, time 3 day",17.33 mg/dL
same,CARBON DIOXIDE,"72 h, time 3 day",29.5 mmol/L
same,CHLORIDE,"72 h, time 3 day",101 MEQ/L
same,CHOLESTEROL,"72 h, time 3 day",70 mg/dL
same,CREATINE PHOSPHOKINASE,"72 h, time 3 day",1325.83 u/L
same,CREATININE,"72 h, time 3 day",0.18 mg/dL
same,GLUCOSE,"72 h, time 3 day",171.5 mg/dL
same,LACTATE DEHYDROGENASE,"72 h, time 3 day",386 u/L
same,LIPASE,"72 h, time 3 day",10 u/L
same,PHOSPHORUS,"72 h, time 3 day",11.57 mg/dL
same,POTASSIUM,"72 h, time 3 day",6.21 MEQ/L
same,SODIUM,"72 h, time 3 day",141.65 MEQ/L
same,TOTAL BILIRUBIN,"72 h, time 3 day",0.15 mg/dL
same,TOTAL PROTEIN,"72 h, time 3 day",5.75 G/DL
same,URIC ACID,"72 h, time 3 day",1.28 mg/dL
same,ABSOLUTE BASOPHIL,"120 h, time 5 day",0 CELLS/uL
same,ABSOLUTE EOSINOPHIL,"120 h, time 5 day",138.17 CELLS/uL
same,ABSOLUTE LYMPHOCYTE,"120 h, time 5 day",13283.17 CELLS/uL
same,ABSOLUTE MONOCYTE,"120 h, time 5 day",303.83 CELLS/uL
same,ABSOLUTE SEGMENTED NEUTROPHIL,"120 h, time 5 day",1308.17 CELLS/uL
same,BASOPHIL,"120 h, time 5 day",0%
same,EOSINOPHIL,"120 h, time 5 day",1%
same,ERYTHROCYTE COUNT,"120 h, time 5 day",5.32 x10E6/uL
same,HEMATOCRIT,"120 h, time 5 day",33.8%
same,HEMOGLOBIN,"120 h, time 5 day",13.63 G/DL
same,LEUKOCYTE COUNT,"120 h, time 5 day",15.03 x10E3/uL
same,LYMPHOCYTE,"120 h, time 5 day",88.33%
same,MEAN CORPUSCULAR HEMOGLOBIN,"120 h, time 5 day",25.68 pg
same,MEAN CORPUSCULAR HEMOGLOBIN CONCENTRATION,"120 h, time 5 day",40.35 G/DL
same,MEAN CORPUSCULAR VOLUME,"120 h, time 5 day",63.67 fL
same,MONOCYTE,"120 h, time 5 day",1.83%
same,NEUTROPHIL,"120 h, time 5 day",8.83%
same,NUCLEATED RED BLOOD CELLS,"120 h, time 5 day",0 /100WBC
same,PLATELET COUNT,"120 h, time 5 day",1097.5 x10E3/uL
same,ALANINE AMINOTRANSFERASE,"120 h, time 5 day",54.5 u/L
same,ALBUMIN,"120 h, time 5 day",4.27 G/DL
same,ALKALINE PHOSPHATASE,"120 h, time 5 day",337 u/L
same,ASPARTATE AMINOTRANSFERASE,"120 h, time 5 day",94.67 u/L
same,BLOOD UREA NITROGEN,"120 h, time 5 day",17 mg/dL
same,CARBON DIOXIDE,"120 h, time 5 day",28.33 mmol/L
same,CHLORIDE,"120 h, time 5 day",101.5 MEQ/L
same,CHOLESTEROL,"120 h, time 5 day",71.33 mg/dL
same,CREATINE PHOSPHOKINASE,"120 h, time 5 day",628.17 u/L
same,CREATININE,"120 h, time 5 day",0.19 mg/dL
same,GLUCOSE,"120 h, time 5 day",177.83 mg/dL
same,LACTATE DEHYDROGENASE,"120 h, time 5 day",500.5 u/L
same,LIPASE,"120 h, time 5 day",9.5 u/L
same,PHOSPHORUS,"120 h, time 5 day",12.3 mg/dL
same,POTASSIUM,"120 h, time 5 day",5.63 MEQ/L
same,SODIUM,"120 h, time 5 day",143.03 MEQ/L
same,TOTAL BILIRUBIN,"120 h, time 5 day",0.2 mg/dL
same,TOTAL PROTEIN,"120 h, time 5 day",6.02 G/DL
same,URIC ACID,"120 h, time 5 day",1.5 mg/dL
